Measurements taken from patent US20140357512A1, “HISTONE DEACETYLASE (HDAC) BIOMARKERS IN MULTIPLE MYELOMA” (priority 2013, published 2014).

Tested on: human myeloma cell line MM.1S
Test: SILAC acetylated-lysine peptide profiling, HDAC inhibitor vs DMSO (light/heavy ratio)
Type: cell-based
Source text: An embodiment of the invention comprises utilizing the SILAC method in order to quantitate changes in protein expression between two or more populations of cells. The SILAC method is a technique based on mass spectrometry that detects differences in protein abundance among samples using non-radioactive isotopic labeling. The SILAC method is known in the art, and described in detail in Ong et al., “Stable Isotope Labeling by Amino Acids in Cell Culture, SILAC, as a Simple and Accurate Approach to Expression Proteomics”, Molecular & Cellular Proteomics, vol. 1, pp. 376-386 (2002), which is incorporated herein by reference in its entirety.
Briefly, the SILAC method involves growing two populations of cells in cell culture. The first population of cells is grown in growth media containing normal amino acids (“normal media”). The second population of cells is grown in media lacking a standard essential amino acid (such as lysine), but is then supplemented with a non-radioactive, isotopically labeled form of that essential amino acid (such as lysine labeled with ^13C atoms, rather than normal ^12C atoms), which is called “heavy media”. When the two populations of cells are each growing in the medium, they incorporate the amino acids into all of their proteins. The growth of cells maintained in the heavy media is no different from that in normal media. All peptides containing the heavy amino acids are heavier than their normal counterparts. The cells from each of the two populations of cells are lysed. The lysates from each of the two cell populations are then combined. The combined cell lysates are then analyzed by mass spectrometry. Pairs of chemically identical peptides of different stable isotope composition can be differentiated in a mass spectrometer due to their difference in mass. The ratio of peak intensities in the mass spectrum for such peptide pairs reflects the abundance ratio for the two proteins.
This example describes SILAC studies that were performed to compare the effects of three different HDAC inhibitors (Compound A, Compound B, and tubastatin A) to a control on a human multiple myeloma cell line. The HDAC inhibitors were also compared amongst themselves to determine differences in their effects.
A human myeloma cell line MM.1S was grown using either ^12C (light) or ^13C (heavy) lysine containing culture medium. The “heavy” cells were treated with DMSO as the control, and the “light” cells were treated with a single HDAC inhibitor at 37° C. for 6 hours. The heavy and light cells were lysed, and the lysates were mixed in 1:1 ratio and digested with the protease trypsin. The acetylated lysine containing peptides (due to the action of the HDAC inhibitor) in the digested peptide pool were captured by a non-specific anti-acetylated lysine antibody cocktail (the antibodies identify both light and heavy acetylated peptides), and subjected to mass spectrometry analysis in order to identify thousands of individual peptides.
Thousands of peptides were identified in pairs (^12C and ^13C) due to their known mass differences. The amino acid sequence and quantitative ratio (Light/Heavy) of a given peptide in two differentially treated cell lysates were then determined and annotated with their possible protein (gene) sources.
As stated above, three HDAC inhibitors (Compound A, Compound B, and Tubastatin A) were used. Thus, the SILAC method was performed three times, with a different HDAC inhibitor compared to a control each time. Accordingly, there are three pairs of quantitative data in the table below, i.e., Compound A:DMSO, Compound B:DMSO, and Tubastatin A:DMSO. A cut-off of 1.30 fold of change (increase or decrease) was then used to determine “changed” or “+” in the table, and any peptides with a fold of change less than 1.3 fold were determined to be “unchanged” or “0” in the table. Those peptides that were not identified were marked as “NA” in the table. […]

O=C(CCCCCCNC(=O)c1cnc(N(c2ccccc2)c2ccccc2)nc1)NO [Compound A, 2-(diphenylamino)-N-(7-(hydroxyamino)-7-oxoheptyl)pyrimidine-5-carboxamide]
light to heavy ratio (L/H ratio), log 2 scale, acetylated peptide KLQK(ac)AALLK (SEQ ID NO: 806) (Ribosomal protein L14 variant [132], gene RPL14, drug:DMSO): 1.00
light to heavy ratio (L/H ratio) of acetylated peptide […](ac)R (SEQ ID NO: 334) (S1 IF1 type family protein [56], EIF1AXP1, drug:DMSO): 0.00 log 2
L/H ratio of acetylated peptide LAELK(ac)QECLAR (SEQ ID NO: 94) (SARNP 17], log 2 scale, drug vs DMSO): 0.00
L/H ratio of acetylated peptide (ac)ATETVELHK(ac)LK (SEQ ID NO: 93) (SARNP [10], log 2 scale, drug vs DMSO): 0.00
L/H ratio of acetylated peptide ANLVFK(ac)EIEK (SEQ ID NO: 95) (SCP2 [438], log 2 scale, drug vs DMSO): 0.00
L/H ratio of acetylated peptide EGQNWLEK(ac)K (SEQ ID NO: 96) (SEC11C [147], log 2 scale, drug vs DMSO): 0.00
L/H ratio of acetylated peptide EHTALLK(ac)IEGVYAR (SEQ ID NO: 630, 60S ribosomal protein L35a [29], RPL35A): 0.49 log 2
L/H ratio of acetylated peptide FNDGSDEK(ac)KK (SEQ ID NO: 631, ATP synthase subunit alpha mitochondrial [239], ATP5A1): 0.49 log 2
L/H ratio of acetylated peptide FSK(ac)[…] (SEQ ID NO: 632, X-ray repair cross-complementing protein 5 [144], XRCC5): 0.50 log 2
L/H ratio of acetylated peptide LTCEEEEEK(ac)IFGR (SEQ ID NO: 633, Isoform Short of Probable global transcription activator SNF2L2 [1302], SMARCA2): 0.51 log 2
L/H ratio of acetylated peptide NDEELNK(ac)LLGR (SEQ ID NO: 634, Histone H2A type 1-B/E [96], HIST1H2AE, HIST1H2AB, HIST1H2AD, HIST1H2AG, HIST1H2AK, HIST1H2AL, HIST1H2AM, HIST1H2AJ, HIST1H2AI): 0.52 log 2
L/H ratio of acetylated peptide ALEAVFGK(ac)YGR (SEQ ID NO: 635, Heterogeneous nuclear ribonucleoprotein G [30], RBMX): 0.52 log 2
L/H ratio of acetylated peptide TFK(ac)[…] (SEQ ID NO: 636, 60S ribosomal protein L3 [103], SNORD43, RPL3): 0.52 log 2
L/H ratio of acetylated peptide YK(ac)[…] (SEQ ID NO: 637, Protein disulfide-isomerase [328], P4HB): 0.52 log 2
L/H ratio of acetylated peptide NAEK(ac)YAEEDRR (SEQ ID NO: 638, Stress-70 protein mitochondrial [567], HSPA9): 0.52 log 2
L/H ratio of acetylated peptide […](ac)DR (SEQ ID NO: 639, pyruvate dehydrogenase E1 component subunit alpha somatic form mitochondrial isoform 2 precursor [359], PDHA1): 0.53 log 2
L/H ratio of acetylated peptide GVDPK(ac)FLR (SEQ ID NO: 640, Ribosomal protein L29 [38], RPL29, RPL29P4): 0.53 log 2
L/H ratio of acetylated peptide LIK(ac)DGLIIR (SEQ ID NO: 641, 60S ribosomal protein L19 [46], RPL19): 0.53 log 2
L/H ratio of acetylated peptide HLLPK(ac)IR (SEQ ID NO: 642, 6-phosphogluconate dehydrogenase decarboxylating [253], PGD): 0.53 log 2
L/H ratio of acetylated peptide LGK(ac)PSLVR (SEQ ID NO: 643, TOB3 [280], ATAD3B): 0.53 log 2
L/H ratio of acetylated peptide EQIYK(ac)LAK (SEQ ID NO: 644, 40S ribosomal protein S13 [39], RPS13): 0.54 log 2
L/H ratio of acetylated peptide VEYFLK(ac)WK (SEQ ID NO: 645, Chromobox protein homolog 3 [50], CBX3): 0.54 log 2
L/H ratio of acetylated peptide HYK(ac)TDFDK (SEQ ID NO: 646, Isocitrate dehydrogenase [NADP] mitochondrial [275], IDH2): 0.54 log 2
L/H ratio of acetylated peptide EGYAWAEDK(ac)EHCEEYGR (SEQ ID NO: 647, tRNA-splicing ligase RtcB homolog [190], C22orf28): 0.54 log 2
L/H ratio of acetylated peptide LAYIAHPK(ac)LGK (SEQ ID NO: 648, Ribosomal protein L29 [103], RPL29, RPL29P4): 0.55 log 2
L/H ratio of acetylated peptide IFSQETLTK(ac)AQILK (SEQ ID NO: 649, Prenylcysteine oxidase 1 [415], PCYOX1): 0.55 log 2
L/H ratio of acetylated peptide […](ac)QNK (SEQ ID NO: 650, Dihydrolipoyl dehydrogenase mitochondrial [143], DLD): 0.55 log 2
L/H ratio of acetylated peptide FYVK(ac)DHR (SEQ ID NO: 651, CDGSH iron-sulfur domain-containing protein 1 [37], CISD1): 0.55 log 2
L/H ratio of acetylated peptide SPVNTK(ac)SLFK (SEQ ID NO: 652, Isoform 1 of DNA-dependent protein kinase catalytic subunit [1057], PRKDC): 0.55 log 2
L/H ratio of acetylated peptide HIVK(ac)EFK (SEQ ID NO: 653, Stress-70 protein mitochondrial [288], HSPA9): 0.56 log 2
L/H ratio of acetylated peptide MYKEEGLK(ac)AFYK (SEQ ID NO: 654, Isoform A of Phosphate carrier protein mitochondrial [214], SLC25A3): 0.56 log 2
L/H ratio of acetylated peptide LDAQVK(ac)ELVLK (SEQ ID NO: 655, Dolichyl-diphospho-oligosaccharide--protein glycosyltransferase subunit 1 precursor [598], RPN1): 0.56 log 2
L/H ratio of acetylated peptide GYPTLK(ac)[…] (SEQ ID NO: 656, Thioredoxin domain-containing protein 5 [140], TXNDC5, MUTED, MUTED-TXNDC5): 0.56 log 2
L/H ratio of acetylated peptide […](ac)EFR (SEQ ID NO: 657, Isoform 1 of Clathrin heavy chain 1 [1264], CLTC): 0.57 log 2
L/H ratio of acetylated peptide YK(ac)EALEQCR (SEQ ID NO: 658, Isoform 2 of Antigen peptide transporter 2 [356], TAP2): 0.57 log 2
L/H ratio of acetylated peptide YELTGK(ac)FER (SEQ ID NO: 659, Annexin A6 [81], ANXA6): 0.57 log 2
